Ki data for nine compounds are collected here from ChEMBL document CHEMBL3132755, “Phage display libraries of differently sized bicyclic peptides” (Medchemcomm, 2013).

Each structure is given as a SMILES string.

The target in this experiment is Urokinase-type plasminogen activator (Homo sapiens, UniProt P00749). The experiment in a line: Inhibition of human uPA using Z-Gly-Gly-Arg-AMC as substrate after 30 mins by fluorescence assay.
The Ki is the dissociation constant of the complex between target and ligand, obtained from inhibition or displacement. `CC[C@H](C)[C@@H]1NC(=O)[C@H](CO)NC(=O)[C@H](CO)NC(=O)[C@H](CCCNC(=N)N)NC(=O)CNC(=O)[C@H](CCCNC(=N)N)NC(=O)[C@@H]2CSCc3cc(cc(c3)CSC[C@@H](C(=O)NCC(=O)O)NC1=O)CSC[C@H](NC(=O)[C@H](C)N)C(=O)N[C@@H]([C@@H](C)O)C(=O)N[C@@H](CCC(=O)O)C(=O)N[C@@H](Cc1ccccc1)C(=O)N[C@@H](CCC(N)=O)C(=O)N[C@@H]([C@@H](C)O)C(=O)N[C@@H](CC(=O)O)C(=O)N2` had an inhibition constant Ki of 0.9 µM.

In turn, `C[C@H](N)C(=O)N[C@H]1CSCc2cc3cc(c2)CSC[C@@H](C(=O)NCC(=O)O)NC(=O)[C@@H]2CCCN2C(=O)CNC(=O)CNC(=O)[C@H](CCCNC(=N)N)NC(=O)CNC(=O)[C@H](CCCNC(=N)N)NC(=O)[C@H](CSC3)NC(=O)[C@H](CC(=O)O)NC(=O)[C@H]([C@@H](C)O)NC(=O)[C@H](C)NC(=O)[C@H](C)NC(=O)[C@H](Cc2cnc[nH]2)NC(=O)[C@H](CC(N)=O)NC1=O` had an inhibition constant (Ki) of 0.71 µM.

`CC(C)C[C@@H]1NC(=O)[C@H]([C@@H](C)O)NC(=O)[C@H](CCCNC(=N)N)NC(=O)[C@H](C)NC(=O)[C@H]([C@@H](C)O)NC(=O)[C@@H]2CSCc3cc(cc(c3)CSC[C@@H](C(=O)NCC(=O)O)NC1=O)CSC[C@H](NC(=O)[C@H](C)N)C(=O)N[C@@H](CCCCN)C(=O)N[C@@H](CCC(N)=O)C(=O)N[C@@H](CO)C(=O)N[C@@H](C(C)C)C(=O)N2` showed an inhibition constant Ki of 8.67 µM.

For `C[C@H](N)C(=O)N[C@H]1CSCc2cc3cc(c2)CSC[C@@H](C(=O)NCC(=O)O)NC(=O)[C@@H]2CCCN2C(=O)[C@H](Cc2ccccc2)NC(=O)[C@H](CCCNC(=N)N)NC(=O)[C@H](C)NC(=O)[C@H]([C@@H](C)O)NC(=O)[C@H](CSC3)NC(=O)[C@H](CC(=O)O)NC(=O)[C@H](CO)NC(=O)[C@H](Cc2cnc[nH]2)NC(=O)[C@H](CCCCN)NC1=O`, the inhibition constant (Ki) was found to be 26.8 µM.

In turn, `CSCC[C@@H]1NC(=O)[C@H]([C@@H](C)O)NC(=O)[C@H](Cc2ccccc2)NC(=O)[C@H](CCCCN)NC(=O)[C@@H]2CSCc3cc(cc(c3)CSC[C@@H](C(=O)NCC(=O)O)NC1=O)CSC[C@H](NC(=O)[C@H](C)N)C(=O)N[C@@H](CCCNC(=N)N)C(=O)NCC(=O)NCC(=O)N2` yielded a Ki of 23.5 µM.

`CC(C)C[C@@H]1NC(=O)[C@@H](NC(=O)[C@H](C)N)CSCc2cc3cc(c2)CSC[C@@H](C(=O)NCC(=O)O)NC(=O)[C@H](CO)NC(=O)[C@@H]2CCCN2C(=O)[C@H](CCCNC(=N)N)NC(=O)[C@H](CCCNC(=N)N)NC(=O)[C@H](CC(N)=O)NC(=O)[C@H](CCC(=O)O)NC(=O)[C@H](CSC3)NC(=O)CNC(=O)[C@H](CCCNC(=N)N)NC(=O)[C@H](CCC(=O)O)NC(=O)CNC(=O)[C@H](CCC(N)=O)NC1=O` gave an inhibitory constant (Ki) of 4.77 µM.

For the compound `CC(C)C[C@@H]1NC(=O)[C@H](C(C)C)NC(=O)[C@H](CCC(N)=O)NC(=O)[C@H]([C@@H](C)O)NC(=O)[C@H](C)NC(=O)[C@@H]2CCCN2C(=O)[C@@H]2CSCc3cc(cc(c3)CSC[C@@H](C(=O)NCC(=O)O)NC1=O)CSC[C@H](NC(=O)[C@H](C)N)C(=O)N[C@@H]([C@@H](C)O)C(=O)N[C@@H](C)C(=O)N[C@@H](CCCNC(=N)N)C(=O)N[C@@H]([C@@H](C)O)C(=O)N2`, the affinity, expressed as Ki, was 48.7 µM.

Compound `CC(C)C[C@@H]1NC(=O)[C@H](CO)NC(=O)[C@H](Cc2ccccc2)NC(=O)[C@H](CCCCN)NC(=O)[C@H](Cc2c[nH]c3ccccc23)NC(=O)[C@H](CC(N)=O)NC(=O)[C@@H](NC(=O)[C@H](C)N)CSCc2cc3cc(c2)CSC[C@H](NC1=O)C(=O)N[C@@H](CCC(=O)O)C(=O)N[C@@H]([C@@H](C)O)C(=O)N[C@@H](CCC(N)=O)C(=O)N[C@@H](CCCNC(=N)N)C(=O)N[C@@H](CC(N)=O)C(=O)N[C@@H](CCC(N)=O)C(=O)N[C@H](C(=O)NCC(=O)O)CSC3` displayed a Ki of 1.48 µM.

With `CSCC[C@@H]1NC(=O)[C@H](CCC(N)=O)NC(=O)[C@H](CO)NC(=O)[C@H](CO)NC(=O)[C@@H]2CCCN2C(=O)[C@H](CO)NC(=O)[C@@H]2CSCc3cc(cc(c3)CSC[C@@H](C(=O)NCC(=O)O)NC1=O)CSC[C@H](NC(=O)[C@H](C)N)C(=O)N[C@@H](CC(N)=O)C(=O)N[C@@H](CO)C(=O)N[C@@H](CCCNC(=N)N)C(=O)N[C@@H](Cc1ccccc1)C(=O)N[C@@H](C)C(=O)N[C@@H](CC(C)C)C(=O)N2`, the affinity corresponds to a Ki of 14.8 µM.
